Measurements reported in patent US20250025427A1, “MIXED AMIDE ESTER CONTAINING LIPIDS FOR USE IN LIPID NANOPARTICLES” (Acuitas Therapeutics, Inc., priority 2023, published 2025).

Key:
[1] = system: luciferase protein (FLuc mRNA) expression in liver; test: Luciferase mRNA in vivo evaluation using lipid nanoparticle compositions; parameters: species or system mice; conditions: LNP with the cationic lipid, tail vein injection, ng luciferase/g liver 4 hours after administration
Method: (§1) A lipid of Formula (I), DSPC, cholesterol and PEG-lipid of Formula (II) are solubilized in ethanol at a molar ratio of 50:10:38.5:1.5 or 47.5:10:40.7:1.8. Lipid nanoparticles (LNP) are prepared at a total lipid to mRNA weight ratio of approximately 10:1 to 40:1. Briefly, the mRNA is diluted to 0.2 mg/mL in 10 to 50 mM citrate buffer, pH 4 to 6 or 10 to 25 mM acetate buffer, pH 4 to 6. Syringe pumps are used to mix the ethanolic lipid solution with the mRNA aqueous solution at a ratio of about 1:5 to 1:3 (vol/vol) with total flow rates above 15 mL/min. The ethanol is then removed, and the external buffer replaced with PBS by dialysis. Finally, the lipid nanoparticles are filtered through a 0.2 µm pore sterile filter.
Studies are performed in 6-8-week-old female C57BL/6 mice (Charles River) or 8-10-week-old CD-1 mice (Charles River or Inotiv) according to guidelines established by an institutional animal care committee (ACC) and the Canadian Council on Animal Care (CCAC). Varying doses of mRNA-lipid nanoparticle are systemically administered by tail vein injection and animals euthanized at a specific time point (e.g., 4 hours) post-administration. Liver and spleen are collected in pre-weighed tubes, weights determined, immediately snap frozen in liquid nitrogen, and stored at −80° C. until processing for analysis. […]

[2] = system: human IgG in mouse serum; test: Immunoglobulin G (IgG) mRNA in vivo evaluation using lipid nanoparticle compositions; parameters: species or system mice; conditions: LNP with the cationic lipid, 0.3 mg mRNA/kg, tail vein injection, μg IgG/mL serum 24 hours after administration
Method: as §1
Studies are performed in 6-8-week-old CD-1/ICR mice (Charles River or Inotiv) according to guidelines established by an institutional animal care committee (ACC) and the Canadian Council on Animal Care (CCAC). Varying doses of mRNA-lipid nanoparticle are systemically administered by tail vein injection and animals euthanized at a specific time point (e.g., 24 hours) post-administration. The whole blood is collected, and the serum subsequentially separated by centrifuging the tubes of the whole blood at 2000×g for 10 minutes at 4° C. and stored at −80° C. until use for analysis.
For immunoglobulin G (IgG) ELISA (Life Diagnostics Human IgG ELISA kit), the serum samples are diluted at 100 to 20,000 folds with 1× diluent solution. 100 μL of diluted serum is dispensed into anti-human IgG coated 96-well plate in duplicate alongside human IgG standards and incubated in a plate shaker at 150 rpm at 25° C. for 45 minutes. The wells are washed 5 times with 1× wash solution using a plate washer (400 μL/well). 100 μL of HRP conjugate is added into each well and incubated in a plate shaker at the same condition above. The wells are washed 5 times again with 1× wash solution using a plate washer (400 μL/well). 100 μL of TMB reagent is added into each well and incubated in a plate shaker at the same condition above. The reaction is stopped by adding 100 μL of Stop solution to each well. The absorbance is read at 450 nm (A450) with a microplate reader. The amount of human IgG in mouse serum is determined by plotting A450 values for the assay standard against human IgG concentration.
Representative compounds of the disclosure shown in Table 2 were formulated using the following molar ratio: 50% cationic lipid/10% distearoylphosphatidylcholine (DSPC)/38.5% Cholesterol/1.5% PEG lipid 2-[2-(ω-methoxy(polyethyleneglycohooo)ethoxy]-N,N-ditetradecylacetamide) or 47.5% cationic lipid/10% DSPC/40.7% Cholesterol/1.8% PEG lipid. Relative activity was determined by measuring the amount of human IgG […]. The activity was compared at a dose of 1.0 or 0.3 mg mRNA/kg and expressed as ng luciferase/g liver measured 4 hours after administration, as described in Example 1 or as μg IgG/mL serum measured 24 hours after administration, as described in Example 2. Compound numbers in Table 2 refer to the compound numbers of Table 1.

| SMILES | Liver Luc (ng/g) @ 0.3 mg/kg ([1]; 0.3 mg mRNA/kg) [ng/g] | Liver Luc (ng/g) @ 1.0 mg/kg ([1]; 1.0 mg mRNA/kg) [ng/g] | Serum IgG (μg/mL) @ 0.3 mg/kg [2] [µg/mL] |
| --- | --- | --- | --- |
| CCCCCCCCCCN(CCCCCCCCCC)C(=O)CCCCCCCN(C)CCCCCCCC(=O)NCCCCCC(=O)OCC(CCCCCC)CCCCCCCC (centres unmarked) [Compound I-3, 2-Hexyldecyl 6-(8-((8-(Didecylamino)-8-Oxooctyl)(Methyl)Amino)Octanamido)Hexanoate] | 8191 ± 2369 | 25381 ± 4022 |  |
| CCCCCCCCC(CCCCCC)COC(=O)CCCCCNC(=O)CCCCCCCN(C)CCCCCCCC(=O)N(CCCCCC)CCCCCC(=O)OCC(CCCCCC)CCCCCCCC (centres unmarked) [Compound I-11, 2-Hexyldecyl 6-(8-((8-(Hexyl(6-((2-Hexyldecyl)Oxy)-6-Oxohexyl)Amino)-8-Oxooctyl)(Methyl)Amino)Octanamido)Hexanoate] |  |  | 35.6 ± 5.5 |
| CCCCCCCCC(CCCCCC)COC(=O)CCCCCN(CCCCCC)C(=O)CCCCCN(C)CCCCCC(=O)N(CCCCCC)CCCCCC(=O)OCC(CCCCCC)CCCCCCCC (centres unmarked) [Compound I-27, Bis(2-Hexyldecyl) 6,6′-((6,6′-(Methylazanediyl)Bis(Hexanoyl))Bis(Hexylazanediyl))Dihexanoate] |  |  | 15.6 ± 4.7 |
| CCCCCCCCCCCCCCCCN(CCCN(C)CCCCCCCC(=O)N(CCCCCCCCCC)CCCCCC(=O)OCC(CCCC)CCCCCC)C(=O)CCCCC(=O)OCC(CCCCCC)CCCCCCCC (centres unmarked) [Compound I-38, 2-Hexyldecyl 6-((3-((8-((6-((2-Butyloctyl)Oxy)-6-Oxohexyl)(Decyl)Amino)-8-Oxooctyl)(Methyl)Amino)Propyl)(Hexadecyl)Amino)-6-Oxohexanoate] |  |  | 21.9 ± 8.8 |
| CCCCCCCCC(CCCCCC)COC(=O)CCCCCCCC(=O)N(CCCCCC)CCCCCCN(C)CCCCCCN(CCCCCC)C(=O)CCCCCCCC(=O)OCC(CCCCCC)CCCCCCCC (centres unmarked) [Compound I-5, Bis(2-Hexyldecyl) 9,9′-(((Methylazanediyl)Bis(Hexane-6,1-Diyl))Bis(Hexylazanediyl))Bis(9-Oxononanoate)] |  |  | 57.5 ± 8.4 |
| CCCCCCCCC(CCCCCC)COC(=O)CCCCCN(CCCCCC)C(=O)CCCCCN(CCCCCC(=O)N(CCCCCC)CCCCCC(=O)OCC(CCCCCC)CCCCCCCC)CCCOC (centres unmarked) [Compound I-37, Bis(2-Hexyldecyl) 6,6′-((6,6′-((3-Methoxypropyl)Azanediyl)Bis(Hexanoyl))Bis(Hexylazanediyl))Dihexanoate] |  |  | 63.0 ± 22.9 |
| CCCCCCCCC(CCCCCC)COC(=O)CCCCCN(CCCCCC)C(=O)CCCCN(C)CCCCC(=O)N(CCCCCC)CCCCCC(=O)OCC(CCCCCC)CCCCCCCC (centres unmarked) [Compound I-19, Bis(2-Hexyldecyl) 6,6′-((5,5′-(Methylazanediyl)Bis(Pentanoyl))Bis(Hexylazanediyl))Dihexanoate] |  |  | 12.3 ± 5.2 |
| CCCCCCCCC(CCCCCC)COC(=O)CCCCCCCCCN(CCCCCC)C(=O)CCCN(C)CCCC(=O)N(CCCCCC)CCCCCCCCCC(=O)OCC(CCCCCC)CCCCCCCC (centres unmarked) [Compound I-50, Bis(2-Hexyldecyl) 10,10′-((4,4′-(Methylazanediyl)Bis(Butanoyl))Bis(Hexylazanediyl))Bis(Decanoate)] |  |  | 11.6 ± 8.2 |
| CCCCCCCCC(CCCCCC)COC(=O)CCN(CCCCCC)C(=O)CCCCCCCN(C)CCCCCCCC(=O)N(CCCCCC)CCC(=O)OCC(CCCCCC)CCCCCCCC (centres unmarked) [Compound I-32, Bis(2-Hexyldecyl) 3,3′-((8,8′-(Methylazanediyl)Bis(Octanoyl))Bis(Hexylazanediyl))Dipropionate] |  |  | 70.8 ± 12.3 |
| CCCCCCCCC(CCCCCC)COC(=O)CCCCCCCCN(CCCCCC)C(=O)CCCCCN(C)CCCCCC(=O)N(CCCCCC)CCCCCCCCC(=O)OCC(CCCCCC)CCCCCCCC (centres unmarked) [Compound I-17, Bis(2-Hexyldecyl) 9,9′-((6,6′-(Methylazanediyl)Bis(Hexanoyl))Bis(Hexylazanediyl))Dinonanoate] |  |  | 16.0 ± 2.6 |
